| melting point | SMILES |
| --- | --- |
| 167 to 168 °C | Cc1nc(N2CCN(Cc3ccccc3)C2=O)sc1C(=O)NCc1ccccc1F |
| 122 to 124 °C | COC(=O)C(CCSC)NC(=O)c1ccc([N+](=O)[O-])cc1-c1cc(C)cc(C)c1 (stereo not given) |
| 110 to 111 °C | Cc1oc(-c2ccccc2)nc1COc1ccc(CCc2oc(-c3ccccc3)nc2CCC(=O)O)cc1 |
| 221 to 222 °C | COC(=O)c1cc(C(=O)NC2CCCC2)c2cc(Cc3ccc(F)cc3)cnc2c1O |
| 225 to 227 °C | CCC(=O)NCC(C)(C)c1ccc(C(=O)Nc2cn3cc(Cl)ccc3n2)cc1 |
| 108 to 110 °C | O=CC1=Cc2cc(OCc3ccc(C(F)(F)F)cc3)ccc2OC1 |
| 228 to 229 °C | CCCc1c2c(c(OC)c3c(=O)cc(C(=O)O)oc13)CCCC2 |
| 19 to 20 °C | CCCCCCN(O)C(=O)N(C)C |
| 145 to 147 °C | COc1cnc2sc(SCc3ccccc3)nn2c1=O |
| 122 to 124 °C | COc1ccc(P(c2cc(C)cc(C(C)(C)C)c2O)c2cc(C)cc(C(C)(C)C)c2O)cc1 |
| 142 to 146 °C | COc1ccc(Oc2cc3nc(-c4ccccc4)oc3cc2[N+](=O)[O-])cc1 |
| 93 to 96 °C | CCCCN(C)S(=O)(=O)C1=C(C)NC(C)=C(C(=O)OCC2CC2)C1c1cccc([N+](=O)[O-])c1 (stereo not given) |
| 148 to 149 °C | CC(C)(C)N(Cc1ccccc1)CC(O)c1ccc(OCc2ccccc2)c(C(O)CO)c1 (stereo not given) |
| 117 to 119 °C | CCCNCc1cc2ccc(NC(=O)c3ccc(OC[C@@H]4CCCO4)cc3)c(C)c2[nH]1 |
| 210 to 212 °C | CC(C)(C)OC(=O)C(C1NC(C(=O)O)C2(CCSCC2)S1)N1C(=O)c2ccccc2C1=O (stereo not given) |
| 128 to 130 °C | CC(=O)N(C(=O)N(C)C)c1snc(C(C)C)c1C#N |
| 89 to 90 °C | C=CCNc1nc(NC(C)(C)C)c2scc(C)c2n1 |
| 87 to 90 °C | CN(CCCCCNC(=NCCSCc1csc(NC(=N)N)n1)NC#N)CCC(c1ccc(Cl)cc1)c1ccccn1 (stereo not given) |
| 142 to 144 °C | CCN(CC)c1ccc2c(c1)OC(=O)C(C)(C#Cc1ccccc1)C2 (stereo not given) |
| 151 to 153 °C | CCCNCc1ccc(S(=O)(=O)c2ccc(S(N)(=O)=O)s2)cc1 |
| 188 to 189 °C | O=C(CC1CCCCC1)Nc1ccc2oc3c(c2c1)CCCCC3 |
| 81 to 122 °C | NCC(=O)N1CCC(C2c3ncc(Br)cc3CCc3cc(Cl)cc(Cl)c32)CC1 (single isomer, unassigned; (+)) |
| 109 to 110 °C | Cc1cnc(NC(=O)C(C)C)o1 |
| 187 to 188 °C | COc1ccc2c(c1)c(C(C)C(=O)O)cc(=O)n2Cc1ccccc1Cl (stereo not given) |
| 46 to 48 °C | Cc1cc(C2(C(F)(F)F)CC(n3cncn3)=NO2)ccc1NC(=O)OC(C)(C)C (stereo not given) |
| 83 to 84 °C | Cc1ccc(S(=O)(=O)OC2CC(=O)N(Cc3ccccc3)C2)cc1 (stereo not given) |
| 141 to 142 °C | COc1cc(C(=O)N(C(C)C)C2CCCCC2)ccc1Cn1c(CN(C)C)nc2ncccc21 |
| 230 to 232 °C | CCCCN(C(=O)c1cc(C(C)(C)C)c(OC(=O)c2cc(C(C)(C)C)c(O)c(C(C)(C)C)c2)c(C(C)(C)C)c1)C1CC(C)(C)N(OC(C)=O)C(C)(C)C1 |
| 55 to 57 °C | COc1cc(C=O)c(OC)c2c1C(C)(C)CCC2(C)C |

The next lines start with the compound.

| SMILES | melting point |
| --- | --- |
| Cc1ncccc1-c1ccc(OC2SCC(O)C(O)C2O)cn1 (stereo not given) | 167 to 168 °C |
| CC(C)(C)c1cc(Oc2ccc(N)cc2)ccc1Oc1ccc(N)cc1 | 129 to 130 °C |
| COc1ccc(-c2cc(=Nc3c(C)cc(C)cc3C)n(C)c(Cl)n2)cc1OC | 159 to 162 °C |
| CC(C)(C)C(=O)Oc1cc(C(=O)OCC[Si](C)(C)C)cc2oc(-c3ccccc3)cc(=O)c12 | 205 °C |
| COC(=O)c1c(Cc2ccc(C(=O)O)cc2)c(=O)c2ccc(Cl)cc2n1-c1ccccc1 | 258 to 261 °C |
| COc1ccc(C2CCN(c3c(C)c(C)c4c(c3C)C(c3ccc(C(C)C)cc3)C(C)(C)O4)CC2)cc1OC (stereo not given) | 129 to 132 °C |
| Nc1ccc(OCC2CN(c3ccccn3)C(=O)O2)cc1 (stereo not given) | 141 to 143 °C |
| CCc1cc(/C=C/[N+](=O)[O-])ccc1N=C1SCC2(CCCC2)N1C1CCCC1 | 141 to 142 °C |
| COc1cccc2c1cc(C(=O)NCCc1ccncc1)n2Cc1cccc(C(=N)NO)c1 | 220 to 222 °C |
| C#CCc1c(C)cc(=O)n(O)c1-c1ccccc1 | 200 °C |
| Cn1nc(-c2cccc(-n3ncc4cc(C(C)(C)C)cc(F)c4c3=O)c2CO)cc(Nc2cnc(C(F)(F)F)cn2)c1=O | 250 to 254 °C |
| CC(C)(C)C(=O)c1c[nH]c2ncc(-c3ccoc3)nc12 | 256 to 258 °C |
| Clc1ccc2c(c1)N=C(NCCCn1ccnc1)c1ccccc1N2 | 228 to 230 °C |
| N#CCCNC(=O)C1=CC(CF)(CF)Oc2cc(Cl)c(Cl)cc21 | 135 to 136 °C |
| COc1cc(C2CCN(C(=O)C3CCN3)CC2)ccc1Nc1ncc2ccc(-c3ccccc3N(C)S(C)(=O)=O)n2n1 (stereo not given) | 111 to 116 °C |
| CC(=O)N1c2ccc(N(C)C)cc2Sc2cc(N(C)C)ccc21 | 137 °C |
| Cc1ccc(S(=O)(=O)OCC2Cc3c(Cl)cc4c(c3O2)CCC4)cc1 (stereo not given) | 95 to 97 °C |
| CC1=NC(C)=C(c2ccc(Oc3ccc(S(C)=O)cc3)cc2)C(=O)C1Br (stereo not given) | 262 to 263 °C |

| SMILES | melting point |
| --- | --- |
| Cc1cc(C#N)sc1-c1ccc2c(c1)C(C)(C)OC(C(F)(F)F)N2 (stereo not given) | 97 to 98 °C |
| CCCCCCCCCCCCOc1ccccc1O | 46 °C |
| CCOC(=O)/C=C/c1cc(C(C)C)c(OC(C)=O)c2c(C)cccc12 | 122 to 123 °C |
| CC(C)(C)Sc1c(CC(C)(C)C(=O)O)n(Cc2ccc(Cl)cc2)c2cc(OCc3ccc4ccccc4n3)ccc12 | 165 to 167 °C |
| COc1cc(Cl)ccc1C(C)=O | 55 °C |
| COc1ccc(-c2cc(C(F)F)nn2-c2ccc(S(N)(=O)=O)cc2)cc1 | 133 to 135 °C |
| CCCCCCCCCCCCCCCCN1C(=O)C2=C(c3cccs3)N(CCCCCCCCCCCCCCCC)C(=O)C2=C1c1cccs1 | 124 to 125 °C |
| c1ccc(OCNc2ccncc2)cc1 | 159 to 160 °C |
| CS(=O)(=O)c1ccc(C(CC2CCCC2)C(=O)O)cc1 (stereo not given) | 152 to 154 °C |
| CCOC(=O)c1ncc2c(c1COC)c1c(OCc3ccccc3)cccc1n2S(=O)(=O)c1ccc(C)cc1 | 149 to 150 °C |
| CCCCCc1cnc(-c2ccc(-c3ccc(Br)cc3)cc2)nc1 | 137 °C |
| CN1CCN(Cc2cc(-c3ccccc3)c3c(n2)OCCN(Cc2cc(C(F)(F)F)cc(C(F)(F)F)c2)C3=O)CC1 | 181 to 182 °C |
| C=Cc1cccc(C(OS(=O)(=O)c2ccc(Cl)cc2)(C(F)(F)F)C(F)(F)F)c1 | 70 °C |
| Cc1sc(CCc2ccc(C=CC=O)cc2)nc1-c1ccccc1 | 94 to 95 °C |
| Cc1cc(C(=O)c2ccccc2)c(C)n1C(C)C(=O)Nc1ccccc1 (stereo not given) | 165 to 166 °C |
| O=C(OCc1ccccc1)N1CCOc2cc(Oc3cc(Cl)ncn3)ccc21 | 110 °C |
| Cc1cc(N)nc(CCc2nc3cc(-c4cccc(O)c4)cnc3[nH]2)c1 | 162 °C |
| CCS(=O)(=O)CCC(=O)NNC(=O)N1Cc2cccc(Cl)c2Oc2ccccc21 | 195 to 197 °C |

From a melting point compilation (Tetko et al.; mined from patent text by program, amines drawn as free bases though some values may be those of a salt)
